≈ marks a conversion by molar mass, not a printed value. Where two headings read alike, the source gives them in different places.
Experiments:
K. pneumoniae ATCC 27736 = experiment: MIC determination; assay type: cell-based; conditions: Klebsiella pneumoniae, ATCC27736
E. coli ATCC BAA 2469 = experiment: MIC determination; assay type: cell-based; conditions: Escherichia coli, BAA2469; Table 3
Ab ATCC 19606 (strain I) = experiment: MIC determination (double dilution, Mueller-Hinton broth); assay type: cell-based, Acinetobacter baumannii; conditions: Acinetobacter baumannii, ATCC19606
Procedure: All bacterial strains listed above were stored at −80° C. All strains were streaked on Mueller-Hinton (MH) plates and allowed to grow at 37° C. overnight. […] The resulting culture was diluted 1:1000 and added to the prepared serially doubly diluted compound solutions in 96-well plates. For M. smegmatis, a 1:100 dilution of the bacteria was done in MH. All MIC values were determined using 96-well plates with low evaporation seals at least in duplicate. For each row, one well was reserved for sterile control (which consisted of 200 μL of MH medium) and another well was reserved for growth control (which consisted of 100 μL of MH medium seeded with 100 μL of bacterial culture).
(§1) Minimum inhibitory concentrations (MIC) of all compounds from the series were measured in liquid cultures of different Ab strains by a double-dilution method in Mueller-Hinton broth. Initially, the activity of all 46 compounds against Ab ATCC 19606 (a control strain) and Ab ATCC BAA1605 (a multidrug-resistant strain) (Table 1; data shown for 27 representative compounds) was measured.

[1] = system: Ab ATCC BAA1605 (strain J, multidrug-resistant); experiment: MIC determination; assay type: cell-based; conditions: Acinetobacter baumannii
Procedure: (§2) All bacterial strains listed above were stored at −80° C. All strains were streaked on Mueller-Hinton (MH) plates and allowed to grow at 37° C. overnight. Enough colonies were scraped from the plate and suspended in MH broth with vortexing to reach an attenuance at 600 nm (OD600) of ˜0.5. The resulting culture was diluted 1:1000 and added to the prepared serially doubly diluted compound solutions in 96-well plates. For M. smegmatis, a 1:100 dilution of the bacteria was done in MH. All MIC values were determined using 96-well plates with low evaporation seals at least in duplicate. For each row, one well was reserved for sterile control (which consisted of 200 μL of MH medium) and another well was reserved for growth control (which consisted of 100 μL of MH medium seeded with 100 μL of bacterial culture).
as §1

[2] = system: all 43 strains of A. baumannii (41 CDC strains and 2 ATCC strains); experiment: MIC value statistics for all A. baumannii strains; assay type: cell-based, Acinetobacter baumannii; conditions: of 43 A. baumannii strains
Procedure: as §2, with “[…].” for “For M. smegmatis, a 1:100 dilution of the bacteria was done in MH. All MIC values were determined using 96-well plates with low evaporation seals at least in duplicate.”
Having established that the observed activity is selective to A. baumannii, all synthesized compounds were tested against a panel of antibiotic resistant A. baumannii from the Antimicrobial Resistant (AR) Isolate Bank from the CDC along with strains I and J (Table Si). […]. Based on this statistical analysis, the best compound is 5e followed closely by 3e.

P. aeruginosa ATCC 27853 = experiment: MIC determination; assay type: cell-based; conditions: Pseudomonas aeruginosa, ATCC27853
[3] = system: K. pneumoniae ATCC BAA 1705; experiment: MIC determination; assay type: cell-based; conditions: Klebsiella pneumoniae, BAA1705; Table 3
B. anthracis Sterne F32 = experiment: microbe, parasite or virus in culture; assay type: cell-based; conditions: Bacillus anthracis
[4] = system: S. epidermidis ATCC 12228; experiment: MIC determination; assay type: cell-based; conditions: Staphylococcus epidermidis, ATCC12228
S. aureus ATCC 25923 = experiment: MIC determination; assay type: cell-based; conditions: Staphylococcus aureus, ATCC25923
Y. pestis CO92 = experiment: microbe, parasite or virus in culture; assay type: cell-based; conditions: Yersinia pestis, CO92, read-out: MIC Y. pestis CO92
M. smegmatis = experiment: MIC determination; assay type: cell-based, Mycobacterium smegmatis; conditions: Mycolicibacterium smegmatis; Table 4
S. enterica ATCC 14028 = experiment: MIC determination; assay type: cell-based; conditions: Salmonella enterica, ATCC14028
E. cloacae ATCC 13047 = experiment: MIC determination; assay type: cell-based; conditions: Enterobacter cloacae, ATCC13047
E. coli MC1061 = experiment: MIC determination; assay type: cell-based; conditions: Escherichia coli; Table 5; Mueller-Hinton medium; D = E. coli MC1061; read-out: MIC strain D
Gram-negative bacteria = experiment: MIC determination, panel statement; assay type: cell-based; conditions: moderate activity
[5] = Table 1, control strain, read-out: MIC Ab ATCC 19606
[6] = Table 1, multidrug-resistant strain, read-out: MIC Ab ATCC BAA 1605
[7] = Table 5, Mueller-Hinton medium, F = K. pneumoniae ATCC 27736, read-out: MIC strain F
[8] = STERNEF32, read-out: MIC strain A
[9] = Table 5, Mueller-Hinton medium, C = S. epidermidis ATCC 12228, read-out: MIC strain C
[10] = Table 5, Mueller-Hinton medium, I = A. baumannii ATCC 19606, read-out: MIC strain I
[11] = Table 5, Mueller-Hinton medium, J = A. baumannii BAA1605, read-out: MIC strain J
[12] = Table 5, Mueller-Hinton medium, B = S. aureus ATCC 25923, read-out: MIC strain B
[13] = Table 5, Mueller-Hinton medium, G = P. aeruginosa ATCC 27853, read-out: MIC strain G
[14] = Table 5, Mueller-Hinton medium, H = S. enterica ATCC 14028, read-out: MIC strain H
[15] = Table 5, Mueller-Hinton medium, E = E. cloacae ATCC 13047, read-out: MIC strain E

SMILES | MIC (Ab ATCC 19606 (strain I); [5]) [µg/mL] | MIC [1, 6] [µg/mL] | number of compound/strain combinations with MIC value 0.25 μg/mL [2] | number of compound/strain combinations with MIC value 0.5 μg/mL [2] | number of compound/strain combinations with MIC value 1 μg/mL [2] | number of compound/strain combinations with MIC value ≤0.125 μg/mL [2] | MIC (K. pneumoniae ATCC 27736; [7]) [µg/mL] | MIC (B. anthracis Sterne F32; [8]) [µg/mL] | MIC [4, 9] [µg/mL] | MIC (Ab ATCC 19606 (strain I); [10]) [µg/mL] | MIC [1, 11] [µg/mL] | MIC (S. aureus ATCC 25923; [12]) [µg/mL] | MIC (P. aeruginosa ATCC 27853; [13]) [µg/mL] | MIC (S. enterica ATCC 14028; [14]) [µg/mL] | MIC (E. cloacae ATCC 13047; [15]) [µg/mL] | MIC (E. coli MC1061) [µg/mL] | further results
COc1cccc(NNC(=O)c2ccccn2)c1 [Compound 2c] | 0.5 (≈ 2.06 µM) | 1 (≈ 4.11 µM) | 5 | 6 | 28 | 1 | – | – | – | – | – | – | – | – | – | – | MIC (K. pneumoniae ATCC 27736; Table 3, read-out: MIC K. pneumoniae ATCC 27736): > 128 µg/mL; MIC (E. coli ATCC BAA 2469): > 128 µg/mL; MIC ([1]; Table 3, positive control strain, read-out: MIC A. Baumannii ATCC BAA 1605): 1 µg/mL (≈ 4.11 µM); number of compound/strain combinations with MIC value 2 μg/mL [2]: 3; MIC (P. aeruginosa ATCC 27853; Table 3, read-out: MIC P. aeruginosa ATCC 27853): > 128 µg/mL; MIC [3]: > 128 µg/mL
O=C(NNc1ccc(Cl)cc1)c1ccccn1 [Compound 2e] | 0.25 (≈ 1.01 µM) | 0.25 (≈ 1.01 µM) | 16 | 21 | 1 | 5 | 64 (≈ 258 µM) | > 64 | > 64 | 0.25 (≈ 1.01 µM) | 0.25 (≈ 1.01 µM) | > 64 | > 64 | 64 (≈ 258 µM) | 64 (≈ 258 µM) | 16 (≈ 64.6 µM) | MIC (B. anthracis Sterne F32; STERNEF32, read-out: MIC B. anthracis Sterne F32): > 16 µg/mL; MIC ([4]; Table 4, read-out: MIC S. epidermidis ATCC 12228): > 16 µg/mL; MIC (S. aureus ATCC 25923; Table 4, read-out: MIC S. Aureus ATCC 25923): > 16 µg/mL; MIC (Y. pestis CO92): 16 µg/mL (≈ 64.6 µM); MIC (M. smegmatis): 4 µg/mL (≈ 16.1 µM); MIC (S. enterica ATCC 14028; Table 4, read-out: MIC S. enterica ATCC 14028): > 16 µg/mL; MIC (E. cloacae ATCC 13047; Table 4, read-out: MIC E. cloacae ATCC 13047): > 16 µg/mL
O=C(NNc1ccc(Cl)cc1)c1ccccc1 [Compound 10e] | – | – | 23 | 6 | 1 | 13 | 16 (≈ 64.9 µM) | > 64 | 64 (≈ 259 µM) | 0.25 (≈ 1.01 µM) | 0.5 (≈ 2.03 µM) | 64 (≈ 259 µM) | > 64 | 64 (≈ 259 µM) | 16 (≈ 64.9 µM) | 16 (≈ 64.9 µM) | MIC (Gram-negative bacteria): 4 to 16 µg/mL (≈ 16.2 to 64.9 µM)
